Experimental data as given in patent publication US4476122A, “Alkyloximes of 7-amino-thiazolyl-acetamido-cephalosporanic acids” (Roussel Uclaf, priority 1976, dated 1984).
Like-named read-outs stand apart in the source and are kept apart here.

Key:
[1] = test system: Klebsiella pneumonia 52,145; assay: Experimental infection with Klebsiella pneumonia in mice (D); assay type: in vivo
Experimental: The activity of the products of Examples 19 and 21 was studied on an experimental infection of Klebsiella pneumonia in mice. Groups of 10 male mice weighing 21.5 g received intraperitoneally 0.5 ml of a 24 hour culture in nutritive media of Klebsiella pneumonia 52,145 diluted by 1/1000 with distilled water. The products were administered subcutaneously 1,5 and 24 hours after the injection and the number of dead mice were determined using 10th days.

[2] = test system: White Staphylococcus 21 976; assay: MIC, liquid medium dilution; assay type: cell-based
Experimental: (§1) The method used was a dilution of a liquid medium where a series of tubes received the same quantity of a sterile nutritive media and increasing doses of the test compounds were placed therein. Then each tube was seeded with a bacterial strain and was incubated for 24 or 48 hours at 37° C. in an oven. The increasing inhibition was determined by transillumination to determine the minimum inhibiting concentration (MIC in μg/ml) and the results are reported in the following Tables.

Escherichia Coli 19 976 = assay: MIC, liquid medium dilution; assay type: cell-based
Experimental: as §1

[3] = test system: Pathogenic white Staphylococcus 69 396; assay: MIC, liquid medium dilution; assay type: cell-based
Experimental: as §1

Escherichia Coli 73 316 = assay: MIC, liquid medium dilution; assay type: cell-based
Experimental: as §1

Escherichia Coli 69 916 = assay: MIC, liquid medium dilution; assay type: cell-based
Experimental: as §1

[4] = test system: Golden Staphylococcus 68 666; assay: MIC, liquid medium dilution; assay type: cell-based
Experimental: as §1

Escherichia Coli 69 886 = assay: MIC, liquid medium dilution; assay type: cell-based
Experimental: as §1

Escherichia Coli 21 976 = assay: MIC, liquid medium dilution; assay type: cell-based
Experimental: as §1

Escherichia Coli 68 696 = assay: MIC, liquid medium dilution; assay type: cell-based
Experimental: as §1

Escherichia Coli 72 806 = assay: MIC, liquid medium dilution; assay type: cell-based
Experimental: as §1

Escherichia Coli 68 956 = assay: MIC, liquid medium dilution; assay type: cell-based
Experimental: as §1

[5] = Hygroscopicity of the crystalline salt; assay type: physicochemical; conditions: microcrystalline sodium salt

In the case of `CO/N=C(\C(=O)NC1C(=O)N2C(C(=O)O)=C(CSC(C)=O)CSC12)c1csc(N)n1` (stereo not drawn) [Example 21, sodium 3-acetylthiomethyl-7-[{2-(2-amino-4-thiazolyl)-2-methoxyiminoacetyl}amino]-ceph-3-eme-4-carboxylate], the “Mice alive on the 10th day” value ([1]; subcutaneous, 0,1 mg) is reported as 9/10, the “Mortality after 4eJ (number of dead of 10)” value ([1]; subcutaneous, 0,1 mg) is reported as 1 and the “Mice alive on the 10th day” value ([1]; subcutaneous, 0,05 mg) is reported as 9/10. The “Mortality after 73H 15 (number of dead of 10)” value ([1]; subcutaneous, 0,05 mg) was 1, the “Mice alive on the 10th day” value ([1]; subcutaneous, 0,5 mg) was 10/10 and the “Mice alive on the 10th day” value ([1]; subcutaneous, 0,25 mg) was 10/10. For the same compound, the “Mice alive on the 10th day” value ([1]; subcutaneous, 1 mg) was 10/10, the MIC ([2]; 24 h) was 3 µg/mL and the MIC ([2]; 48 h) was 5 µg/mL. It also gave an MIC (Escherichia Coli 19 976; COLI19976, 24 h, read-out: MIC) of 0.6 µg/mL, an MIC (Escherichia Coli 19 976; COLI19976, 48 h) of 0.6 µg/mL and an MIC ([3]; 24 h) of 2 µg/mL. The MIC ([3]; 48 h) was 2 µg/mL, the MIC (Escherichia Coli 73 316; COLI73316, 24 h) was 0.2 µg/mL and the MIC (Escherichia Coli 73 316; COLI73316, 48 h) was 0.2 µg/mL. The MIC (Escherichia Coli 69 916; COLI69916, 24 h) was 0.4 µg/mL, the MIC (Escherichia Coli 69 916; COLI69916, 48 h) was 0.4 µg/mL and the MIC ([4]; 24 h) was 3 µg/mL. For the same compound, the MIC ([4]; 48 h) was 5 µg/mL, the MIC (Escherichia Coli 69 886; COLI69886, 24 h, read-out: MIC) was 0.6 µg/mL and the MIC (Escherichia Coli 69 886; COLI69886, 48 h) was 1 µg/mL. The MIC (Escherichia Coli 21 976; COLI21976, 24 h, read-out: MIC) was 0.6 µg/mL, the MIC (Escherichia Coli 21 976; COLI21976, 48 h) was 0.6 µg/mL and the MIC (Escherichia Coli 68 696; COLI68696, 24 h) was 0.4 µg/mL. For the same compound, the MIC (Escherichia Coli 68 696; COLI68696, 48 h) was 0.4 µg/mL, the MIC (Escherichia Coli 72 806; COLI72806, 24 h) was 1 µg/mL and the MIC (Escherichia Coli 72 806; COLI72806, 48 h) was 1 µg/mL. It also gave an MIC (Escherichia Coli 68 956; COLI68956, 24 h) of 0.4 µg/mL and an MIC (Escherichia Coli 68 956; COLI68956, 48 h) of 0.4 µg/mL.
In the case of `CO/N=C(\C(=O)NC1C(=O)N2C(C(=O)O)=C(CSC(C)=O)CSC12)c1csc(N)n1` (stereo not drawn) [Example 22, sodium 3-acetylthiomethyl-7-[{2-(2-amino-4-thiazolyl)-2-methoxyiminoacetyl}amino]-ceph-3-eme-4-carboxylate], the hygroscopicity [5] is reported as “non-hydroscopic”.
